Values after ≈ are worked out from the molar mass of the structure shown. Where two headings read alike, the source gives them in different places. Marks after values point to notes of the source that are not given here. Where a SMILES comes first, the peptide text is derived from it. Bridges are numbered along the chain shown (N, C = ends). Where no end group is shown, it is not given here. The star is where a group is joined. Acm = CC(=O)NC*
Columns and labels:
Format in all cases: cell-based
[1] = test system: E. coli ATCC 25922; details: for MIC: ATCC 25922, 24 h; for MIC E. coli 25922 Expt. #1 / MIC E. coli 25922 Expt. #2: ATCC 25922
Method: (§1) The minimal inhibitory concentration (MIC) for the peptides was determined in sterile microtiter plates in a final volume of 200 μL using Trypticase Soy Broth (TSB; Difco Laboratories, Detroit, Mich.) as the growth medium. Serial two-fold dilutions of the peptide stock were made in the plate wells such that concentrations ranged from 512 to 2 μg/mL in a volume of 100 μL. Each well was then inoculated with 100 μL of a dilute suspension of bacteria in TSB yielding a final concentration of 1×10^4 bacteria/mL. The final peptide concentrations ranged from […]. The assay plates were incubated at 37° C. for 24 hours inside a Bioscreen C microtitre plate reader (Thermo Labsystems; Vantaa, Finland). Optical Density (OD) of the medium at 600 nm was recorded every 20 minutes to monitor cell growth. The lowest concentration of peptide preventing bacterial growth during the 24 hr period was defined as the MIC.

[2] = test system: K. pneumoniae 700603
Method: as §1

[3] = test system: P. aeruginosa 27853
Method: as §1

[4] = test system: S. aureus 29213
Method: as §1

[5] = test system: E. coli ATCC #25922; details: ATCC #25922, 4 h
Method: Antimicrobial activity of the peptide immobilized on polymer substrates was evaluated in a Shake Flask Test. Test substance (polymer with immobilized peptide) or control substance (polymer alone) (50 mg suspended in […] phosphate buffer (pH 7)) was added to a sterile culture plate well; a dilute suspension of bacteria (1×10^5 cells/mL final concentration in the well) in 0.6 mM phosphate buffer was added to the well for a final volume of 5 mL. The plate was shaken on a platform shaker at room temperature. At specified times (4 hours and 24 hours), an aliquot was removed from the culture plate (0.1 mL, in triplicates), and serial dilutions ranging from 1 to 100 fold were made for enumeration of cells on trypticase soy agar (TSA) plates. The TSA plates were incubated for 20 hr at 37° C., and the number of colony forming units (CFU) per mL was determined.

| Compound | MIC [1] [µg/mL] | MIC E. coli 25922 Expt. #1 [1] | MIC E. coli 25922 Expt. #2 [1] [µg/mL] | MIC K. pneumoniae 700603 [2] [µg/mL] | MIC P. aeruginosa 27853 [3] [µg/mL] | MIC S. aureus 29213 [4]; 29213 [µg/mL] | log reduction in E. coli CFU/mL [5] [log] | MIC S. aureus 29213 ([4]; ATCC 29213) |
| --- | --- | --- | --- | --- | --- | --- | --- | --- |
| CC(=O)NCSC[C@H](NC(=O)[C@H](CC(C)C)NC(=O)[C@H](CCCCN)NC(=O)[C@H](CC(C)C)NC(=O)[C@H](CC(C)C)NC(=O)[C@H](CCCCN)NC(=O)[C@H](CCCCN)NC(=O)[C@H](CC(C)C)NC(=O)CNC(=O)[C@H](CCCCN)NC(=O)[C@H](CC(C)C)NC(=O)[C@H](CC(C)C)NC(=O)[C@H](CCCCN)NC(=O)[C@H](CCCCN)NC(=O)[C@H](CC(C)C)NC(=O)[C@@H](N)CSCNC(C)=O)C(=O)O [SEQ ID NO:25, CLKKLLKGLKKLLKLC] (H-C(Acm)LKKLLKGLKKLLKLC(Acm)-OH; N-terminus and C-terminus assumed) | 8 (≈ 4.03 µM) | – | – | – | – | – | – | – |
| CC(C)C[C@@H]1NC(=O)CNC(=O)[C@H](CCCCN)NC(=O)[C@H](CC(C)C)NC(=O)[C@H](CC(C)C)NC(=O)[C@H](CCCCN)NC(=O)[C@H](CCCCN)NC(=O)[C@H](CC(C)C)NC(=O)[C@@H](NC(=O)[C@@H](N)CCCCN)CSSC[C@@H](C(=O)O)NC(=O)[C@H](CC(C)C)NC(=O)[C@H](CCCCN)NC(=O)[C@H](CC(C)C)NC(=O)[C@H](CC(C)C)NC(=O)[C@H](CCCCN)NC(=O)[C@H](CCCCN)NC1=O [SEQ ID NO:31] (H-KCLKKLLKGLKKLLKLC-OH; disulfide 2-17; N-terminus and C-terminus assumed) | 16 (≈ 8.13 µM) | – | – | – | – | – | – | – |
| CC(C)C[C@@H]1NC(=O)CNC(=O)[C@H](CCCCN)NC(=O)[C@H](CC(C)C)NC(=O)[C@H](CC(C)C)NC(=O)[C@H](CCCCN)NC(=O)[C@H](CCCCN)NC(=O)[C@H](CC(C)C)NC(=O)[C@@H](N)CSSC[C@@H](C(=O)O)NC(=O)[C@H](CC(C)C)NC(=O)[C@H](CCCCN)NC(=O)[C@H](CC(C)C)NC(=O)[C@H](CC(C)C)NC(=O)[C@H](CCCCN)NC(=O)[C@H](CCCCN)NC1=O [SEQ ID NO:38] (H-CLKKLLKGLKKLLKLC-OH; disulfide 1-16; N-terminus and C-terminus assumed) | 32 (≈ 17.4 µM) | – | – | – | – | – | – | – |
| CC(=O)NCSC[C@H](NC(=O)[C@H](CC(C)C)NC(=O)[C@H](CCCCN)NC(=O)[C@H](CC(C)C)NC(=O)[C@H](CC(C)C)NC(=O)[C@H](CCCCN)NC(=O)[C@H](CCCCN)NC(=O)[C@H](CC(C)C)NC(=O)CNC(=O)[C@H](CCCCN)NC(=O)[C@H](CC(C)C)NC(=O)[C@H](CC(C)C)NC(=O)[C@H](CCCCN)NC(=O)[C@H](CCCCN)NC(=O)[C@H](CC(C)C)NC(=O)[C@H](CSCNC(C)=O)NC(=O)[C@@H](N)CCCCN)C(=O)O [compound 17, KC(Acm)LKKLLKGLKKLLKLC(Acm)] (H-KC(Acm)LKKLLKGLKKLLKLC(Acm)-OH; N-terminus and C-terminus assumed) | 4 (≈ 1.89 µM) | – | – | – | – | – | – | – |
| KGGKKLLKGLKKLLKL [SEQ ID NO:43, KGGKKLLKGLKKLLKL] | – | <=4* μg/mL | 2 | 64 | 16 | 256 | – | – |
| KGLKKGLKGLKKLLKL [SEQ ID NO:40, KGLKKGLKGLKKLLKL] | 256 | – | – | – | – | – | – | – |
| KGLKKGLKLLKKLLKL [SEQ ID NO:2, KGLKKGLKLLKKLLKL] | – | <=4* μg/mL | 2 | 4 to 8 | 8 | 64 to 128 | – | – |
| KGLKKLGKLLKKLLKL [SEQ ID NO:42, KGLKKLGKLLKKLLKL] | – | <=4* μg/mL | 2 | 4 to 8 | 8 to 16 | 64 | – | – |
| KGLKKLLKGLKKLLKL [SEQ ID NO:1, KGLKKLLKGLKKLLKL] | 4 | – | 2 to 4 | 8 to 16 | 2 | 8 | 4.6 | – |
| KGLKKLLKLGKKLLKL [SEQ ID NO:3, KGLKKLLKLGKKLLKL] | – | <=4* μg/mL | 2 | 8 | 8 | 64 to 128 | – | – |
| KGLKKLLKLLKKGLKL [SEQ ID NO:5, KGLKKLLKLLKKGLKL] | – | <=4* μg/mL | 2 | 8 to 16 | 8 | – | – | 32+ μg/mL |

— patent publication US7550430B2, “Cationic antimicrobial peptides and compositions” (E.I. du Pont de Nemours and Company, priority 2003, dated 2009)
